Experimental findings from US11472842B2 (Protagonist Therapeutics, Inc., priority 2015, dated 2022) are described below.

Like-named read-outs stand apart in the source and are kept apart here. Starred links: 1 amine or outer side, 2 acyl side, 3 side chain; linkers in the order of their positions; H or OH if unused. Positions of bridges follow the written chain, without caps; N, C: chain ends. Residues, ends and D or L forms follow the SMILES beside them. Groups on a side chain read outwards from the residue. *: point of attachment. γGlu = O=C(O)[C@H](CCC(=O)[*:2])N[*:1]; Palmitoyl = CCCCCCCCCCCCCCCC(=O)*; Isovaleryl = CC(C)CC(=O)*

The target in the assay is T1, human ferroportin (Homo sapiens, UniProt Q9NP59).
T1 construct: expressed in transfected cells
T1 sequence (Q9NP59 1-571): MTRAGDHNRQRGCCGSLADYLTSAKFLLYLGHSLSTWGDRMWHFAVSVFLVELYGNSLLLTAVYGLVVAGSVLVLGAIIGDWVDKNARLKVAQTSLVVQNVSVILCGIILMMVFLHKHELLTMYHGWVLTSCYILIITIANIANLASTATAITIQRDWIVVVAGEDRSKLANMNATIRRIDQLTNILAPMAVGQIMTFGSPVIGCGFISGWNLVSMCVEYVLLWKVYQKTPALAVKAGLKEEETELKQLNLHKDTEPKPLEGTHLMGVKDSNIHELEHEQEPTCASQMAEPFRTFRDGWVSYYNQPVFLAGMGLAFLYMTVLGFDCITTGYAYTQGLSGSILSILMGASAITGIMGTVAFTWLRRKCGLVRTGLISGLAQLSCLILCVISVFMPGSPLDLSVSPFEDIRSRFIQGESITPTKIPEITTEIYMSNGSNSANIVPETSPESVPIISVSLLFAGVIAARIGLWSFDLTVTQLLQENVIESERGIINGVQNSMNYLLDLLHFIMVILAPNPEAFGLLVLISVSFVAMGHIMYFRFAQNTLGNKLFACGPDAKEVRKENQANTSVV
The assay is described as follows: Ferroportin internalization / degradation, HEK-GFP cell based assay (HEK293 cells stably expressing ferroportin-GFP, decrease in GFP fluorescence). The procedure: Peptide analogues were tested in vitro for induction of internalization of the human ferroportin protein. Following internalization, the […] are degraded. The assay measures a decrease in fluorescence of the receptor.
The cDNA encoding the human ferroportin (SLC40A1) was cloned from a cDNA clone from Origene (NM_014585). The DNA encoding the ferroportin was amplified by PCR using primers also encoding terminal restriction sites for subcloning, but without the termination codon. The ferroportin receptor was subcloned into a mammalian GFP expression vector containing a neomycin (G418) resistance marker in such that the reading frame of the ferroportin was fused in frame with the GFP protein. The fidelity of the DNA encoding the protein was confirmed by DNA sequencing. HEK293 cells were used for transfection of the ferroportin-GFP receptor expression plasmid. The cells were grown according to standard protocol in growth medium and transfected with the plasmids using Lipofectamine (manufacturer's protocol, Invitrogen). […] The cells were propagated and frozen in aliquots.
Compound was added to desired final concentration for at least 18 hours in the incubator. […] Compound was added to desired final concentration for at least 18 hours but no more than 24 hours in the incubator.
The EC50 of these reference compounds for ferroportin degradation was determined according to the activity assay described above. These peptides served as control standards.
These values were determined as described herein.

Setting [1] is: Table 3 monomer analogues, ferroportin-GFP HEK293 cells, 18-24 h incubation, read-out: HEK-GFP cell based assay (potency EC50).

With `CC[C@H](C)[C@@H]1NC(=O)[C@@H](NC(=O)[C@@H]2CCCN2C(=O)[C@H](Cc2ccccc2)NC(=O)[C@H](Cc2c[nH]cn2)NC(=O)[C@@H](NC(=O)[C@H](CC(=O)O)NC(=O)CC(C)C)[C@@H](C)O)CSSC[C@@H](C(=O)N[C@@H](CCCCN)C(N)=O)NC(=O)CNC(=O)[C@H](CCCCN)NC(=O)[C@H](CO)NC(=O)[C@H](CCCNC(=N)N)NC(=O)[C@@H]2CCCN2C(=O)[C@H](CCCCNC(=O)CC[C@H](NC(=O)CC(C)C)C(=O)O)NC(=O)[C@H](Cc2ccccc2)NC(=O)[C@H](CCCCN)NC1=O` [Compound 15], the DC50 under setting [1] came out at 26 nM.
The same measure, in the same setting: the value for `CCCCCCCCCCCCCCCC(=O)N[C@@H](CCC(=O)NCCCC[C@@H]1NC(=O)[C@H](Cc2ccccc2)NC(=O)[C@H](CCCCN)NC(=O)[C@H]([C@@H](C)CC)NC(=O)[C@@H](NC(=O)[C@@H]2CCCN2C(=O)[C@@H](NC(=O)[C@H](Cc2c[nH]cn2)NC(=O)[C@@H](NC(=O)[C@H](CC(=O)O)NC(=O)CC(C)C)[C@@H](C)O)C(c2ccccc2)c2ccccc2)CSSC[C@@H](C(=O)N[C@@H](CCCCN)C(N)=O)NC(=O)CN(C)C(=O)[C@H](CCCCN)NC(=O)[C@H](CO)NC(=O)[C@H](CCCNC(=N)N)NC(=O)[C@@H]2CCCN2C1=O)C(=O)O` [Compound 8, Isovaleric acid-DTH-[Dpa]-PCIKF-[Lys(IsoGlu-Palm)]-PRSK-[Sar]-CK-NH2] was 15 nM; that for `CCCCCCCCCCCC(=O)N[C@@H](CCC(=O)NCCCC[C@@H]1NC(=O)[C@H](Cc2ccccc2)NC(=O)[C@H](CCCCN)NC(=O)[C@H]([C@@H](C)CC)NC(=O)[C@@H](NC(=O)[C@@H]2CCCN2C(=O)[C@H](Cc2ccccc2)NC(=O)[C@H](Cc2c[nH]cn2)NC(=O)[C@@H](NC(=O)[C@H](CC(=O)O)NC(=O)CC(C)C)[C@@H](C)O)CSSC[C@@H](C(=O)N[C@@H](CCCCN)C(N)=O)NC(=O)CNC(=O)[C@H](CCCCN)NC(=O)[C@H](CO)NC(=O)[C@H](CCCNC(=N)N)NC(=O)[C@@H]2CCCN2C1=O)C(=O)O` [Compound 12] was 14 nM.
For `CCCCCCCCCCCCCCCC(=O)N[C@@H](CCC(=O)NCCCC[C@@H]1NC(=O)[C@H](Cc2ccccc2)NC(=O)[C@H](CCCCN)NC(=O)[C@H]([C@@H](C)CC)NC(=O)[C@@H](NC(=O)[C@@H]2CCCN2C(=O)[C@H](Cc2ccccc2)NC(=O)[C@H](Cc2c[nH]cn2)NC(=O)[C@@H](NC(=O)[C@H](CC(=O)O)NC(=O)CC(C)C)[C@@H](C)O)CSSC(C)(C)[C@@H](C(=O)N[C@@H](CCCCN)C(N)=O)NC(=O)CNC(=O)[C@H](CCCCN)NC(=O)[C@H](CO)NC(=O)[C@H](CCCNC(=N)N)NC(=O)[C@@H]2CCCN2C1=O)C(=O)O` [Compound 5], the DC50 under setting [1] is 13 nM.
Take `CCCCCCCCCCCCCCCC(=O)N[C@@H](CCC(=O)NCCCC[C@@H]1NC(=O)[C@H](Cc2ccccc2)NC(=O)[C@H](CCCCN)NC(=O)[C@H]([C@@H](C)CC)NC(=O)[C@@H](NC(=O)[C@@H]2CCCN2C(=O)[C@H](Cc2ccccc2)NC(=O)[C@H](Cc2c[nH]cn2)NC(=O)[C@@H](NC(=O)[C@H](CC(=O)O)NC(=O)CC(C)C)[C@@H](C)O)C(C)(C)SSC(C)(C)[C@@H](C(=O)N[C@@H](CCCCN)C(N)=O)NC(=O)CNC(=O)[C@H](CCCCN)NC(=O)[C@H](CO)NC(=O)[C@H](CCCNC(=N)N)NC(=O)[C@@H]2CCCN2C1=O)C(=O)O` [Compound 3, Isovaleric acid-DTHFP-[Pen]-IKF-[Lys(IsoGlu-Palm)]-PRSKG-[Pen]-K-NH2]: under setting [1], the DC50 worked out at 418 nM.
For `CC[C@H](C)[C@@H]1NC(=O)[C@@H](NC(=O)[C@@H]2CCCN2C(=O)[C@H](Cc2ccccc2)NC(=O)[C@H](Cc2c[nH]cn2)NC(=O)[C@@H](NC(=O)[C@H](CC(=O)O)NC(=O)CC(C)C)[C@@H](C)O)CSSC[C@@H](C(=O)N[C@@H](CCCCN)C(N)=O)NC(=O)CNC(=O)[C@H](CCCCN)NC(=O)[C@H](CO)NC(=O)[C@H](CCCNC(=N)N)NC(=O)[C@@H]2CCCN2C(=O)[C@H](CCCCNC(C)=O)NC(=O)[C@H](Cc2ccccc2)NC(=O)[C@H](CCCCN)NC1=O` [Compound 25], the DC50 under setting [1] amounted to 14 nM.
With `CCCCCCCCCCCCCCCC(=O)NCCCCCC(=O)N[C@@H](CCC(=O)NCCCC[C@@H]1NC(=O)[C@H]([C@@H](C)CC)NC(=O)[C@@H](NC(=O)[C@@H]2CCCN2C(=O)[C@H](Cc2ccccc2)NC(=O)[C@H](Cc2c[nH]cn2)NC(=O)[C@@H](NC(=O)[C@H](CC(=O)O)NC(=O)CC(C)C)[C@@H](C)O)CSSC[C@@H](C(=O)N[C@@H](CCCCN)C(N)=O)NC(=O)CN(C)C(=O)[C@H](CCCCN)NC(=O)[C@H](CO)NC(=O)[C@H](CCCNC(=N)N)NC(=O)[C@@H]2CCCN2C(=O)[C@H](CCC(=O)O)NC(=O)[C@H](Cc2ccccc2)NC1=O)C(=O)O` [Compound 28, Isovaleric acid-DTHFPCI-[Lys(isoGlu-Ahx-Palm)]-FEPRSK-[Sar]-CK-NH2], the DC50 under setting [1] stood at 23 nM.
Same read-out and setting: the same measure for `CCCCCCCCCCCCCCCC(=O)NCCCC[C@@H]1NC(=O)[C@H](Cc2ccccc2)NC(=O)[C@H](CCCCN)NC(=O)[C@H]([C@@H](C)CC)NC(=O)[C@@H](NC(=O)[C@@H]2CCCN2C(=O)[C@H](Cc2ccccc2)NC(=O)[C@H](Cc2c[nH]cn2)NC(=O)[C@@H](NC(=O)[C@H](CC(=O)O)NC(=O)CC(C)C)[C@@H](C)O)CSSC[C@@H](C(=O)N[C@@H](CCCCN)C(N)=O)NC(=O)CNC(=O)[C@H](CCCCN)NC(=O)[C@H](CO)NC(=O)[C@H](CCCNC(=N)N)NC(=O)[C@@H]2CCCN2C1=O` [Compound 20]: 19 nM; for `CCCCCCCCCCCCCCCC(=O)NCCCCCC(=O)NCCCC[C@@H]1NC(=O)[C@H](Cc2ccccc2)NC(=O)[C@H](CCCCN)NC(=O)[C@H]([C@@H](C)CC)NC(=O)[C@@H](NC(=O)[C@@H]2CCCN2C(=O)[C@H](Cc2ccccc2)NC(=O)[C@H](Cc2c[nH]cn2)NC(=O)[C@@H](NC(=O)[C@H](CC(=O)O)NC(=O)CC(C)C)[C@@H](C)O)CSSC[C@@H](C(=O)N[C@@H](CCCCN)C(N)=O)NC(=O)CNC(=O)[C@H](CCCCN)NC(=O)[C@H](CO)NC(=O)[C@H](CCCNC(=N)N)NC(=O)[C@@H]2CCCN2C1=O` [Compound 22]: 18 nM.
On the same count and under the same terms, the same measure for `CCCCCCCCCCCCCCCC(=O)N[C@@H](CCC(=O)NCCCC[C@@H]1NC(=O)[C@H](Cc2ccccc2)NC(=O)[C@H](CCCCN)NC(=O)[C@H]([C@@H](C)CC)NC(=O)[C@@H](NC(=O)[C@@H]2CCCN2C(=O)[C@H](Cc2ccccc2)NC(=O)[C@H](Cc2c[nH]cn2)NC(=O)[C@@H](NC(=O)[C@H](CC(=O)O)NC(=O)CC(C)C)[C@@H](C)O)C(C)(C)SSC[C@@H](C(=O)N[C@@H](CCCCN)C(N)=O)NC(=O)CNC(=O)[C@H](CCCCN)NC(=O)[C@H](CO)NC(=O)[C@H](CCCNC(=N)N)NC(=O)[C@@H]2CCCN2C1=O)C(=O)O` [Compound 4, Isovaleric acid-DTHFP-[Pen]-IKF-[Lys(IsoGlu-Palm)]-PRSKGCK-NH2]: 68 nM.
In the case of `CCCCCCCCCCCCCCCC(=O)NCCCCCC(=O)NCCCC[C@@H]1NC(=O)[C@H](Cc2ccccc2)NC(=O)[C@H](CCCCN)NC(=O)[C@H]([C@@H](C)CC)NC(=O)[C@@H](NC(=O)[C@@H]2CCCN2C(=O)[C@H](Cc2ccccc2)NC(=O)[C@H](Cc2c[nH]cn2)NC(=O)[C@@H](NC(=O)[C@H](CC(=O)O)NC(=O)CC(C)C)[C@@H](C)O)CSSC[C@@H](C(=O)N[C@@H](CCCCN)C(N)=O)NC(=O)CN(C)C(=O)[C@H](CCCCN)NC(=O)[C@H](CO)NC(=O)[C@H](CCCNC(=N)N)NC(=O)[C@@H]2CCCN2C1=O` [Compound 24], the DC50 under setting [1] was 10 nM.
Turning to `CC[C@@H](C)[C@@H](NC(=O)[C@H](N)Cc1ccccc1)C(=O)N[C@H](CS)C(=O)N[C@@H](C(=O)N1CCC[C@@H]1C(=O)N[C@H](Cc1ccccc1)C(=O)N[C@H](Cc1c[nH]cn1)C(=O)N[C@@H](C(=O)N[C@H](CC(=O)O)C(N)=O)[C@H](C)O)[C@H](C)CC` [RI-Mini Hepcidin, Hy-DPhe-DIle-DCys-DIle-DPro-DPhe-DHis-DThr-DAsp-NH2, reference compound], the DC50 (Table 9 reference compounds, read-out: Potency EC50) is over 10000 nM.
Regarding `CCCCCCCCCCCCCCCC(=O)N[C@@H](CCC(=O)NCCCC[C@@H]1NC(=O)[C@H](Cc2ccccc2)NC(=O)[C@H](CCCCN)NC(=O)[C@H](CCCCN)NC(=O)[C@@H](NC(=O)[C@@H]2CCCN2C(=O)[C@H](Cc2ccccc2)NC(=O)[C@H](Cc2c[nH]cn2)NC(=O)[C@@H](NC(=O)[C@H](CC(=O)O)NC(=O)CC(C)C)[C@@H](C)O)CSSC[C@@H](C(=O)N[C@@H](CCCCN)C(N)=O)NC(=O)CNC(=O)[C@H](CCCCN)NC(=O)[C@H](CO)NC(=O)[C@H](CCCNC(=N)N)NC(=O)[C@@H]2CCCN2C1=O)C(=O)O` [Compound 11] (Isovaleryl-DTHFPCKKFK([γGlu-Palmitoyl])PRSKGCK-NH2; disulfide 6-16), the DC50 under setting [1] stood at 22 nM.
